{
  "source": "patent US9097673B2",
  "about": "“Processes and kits for determining multi-drug resistance of cells” (ENZO LIFE SCIENCES, INC., priority 2010, dated 2015)",
  "test_system": "HeLa cell line",
  "assay": "Dye uptake flow cytometry MDR assay",
  "type": "cell-based, human",
  "conditions": "HeLa, dye uptake",
  "key": {"[1]": {"conditions": "average of three representative experiments (Table 6)"}, "[2]": {"conditions": "representative experiment (Table 8)"}},
  "experimental": "Concentrations of the modulators used in the experiments were non-toxic to the cells (based upon standard 3-(4,5-Dimethylthiazol-2-Yl)-2,5-Diphenyltetrazolium Bromide (MTT) testing, data not shown). Fluo-8™ was used in all experiments at 5 μM, and Rhod-4™—at 4 μM final concentrations.\nKolmogorov-Smirnov statistics measures the difference between two distribution functions and generates a D value ranging between 0 and 1.0, with higher values indicating a greater difference between the distribution functions. The D value generated by the KS statistics was modified by ascribing a negative value if the fluorescence of a negative control (no inhibitor) was brighter than the fluorescence of the sample with inhibitor.\nCells were grown on tissue culture dishes and on the day of assay were trypsinized and washed twice with warm (37° C.) phosphate-buffered saline (PBS). Post-wash, the cells were re-suspended in warm phenol red indicator-free medium at a density of 1×10^6/ml. For each detection set, sixteen tubes (5 samples in triplicates plus non-stained control for background fluorescence) in numbered tubes each containing 5×10^5/cells (0.5 ml) were prepared. […] After incubation for 5 min at 37° C., 0.25 ml of warm medium with Fluo-8™ AM probe (5 μM final concentration) or Rhod-4™ AM probe (2 μM final concentration) was added to each tube excluding non-stained control that receives plain medium and cells were incubated for 30 min at 37° C. and analyzed immediately by flow cytometry. In the second set of the tubes, the reaction was stopped by rapid centrifugation (1 min) at relatively low speed (200×g). After wash with ice-cold PBS and discarding the supernatant, cells were re-suspended in 0.5 ml of ice-cold medium and kept on ice until flow cytometry analysis. The third set of cells simply was spun down (1 min, 200×g) to remove the excess of the probe, resuspended in ice-cold medium and kept on ice until flow cytometry analysis.\nFluo-8™ dye fluorescence was measured in the FL1 channel, and Rhod-4™ dye fluorescence—in the FL2 channel.",
  "data": [
    {"smiles": "CC(=O)OCOC(=O)CN(CC(=O)OCOC(C)=O)c1ccccc1OCCOc1cc(-c2c3ccc(=O)cc-3oc3cc(OCOC(C)=O)ccc23)ccc1N(CC(=O)OCOC(C)=O)CC(=O)OCOC(C)=O", "note": "[Fluo-8 ™ AM]", "values": [
      {"measurement": "D-value, Fumitremorgan C", "setting": "[1]", "result": 0.15},
      {"measurement": "D-value, Probenecid", "setting": "[1]", "result": 0},
      {"measurement": "D-value, Verapamil", "setting": "[1]", "result": 0.10},
      {"measurement": "D-value, Cyclosporine A", "setting": "[2]", "result": 0.14},
      {"measurement": "D-value, Novobiocin", "setting": "[2]", "result": 0.09},
      {"measurement": "D-value, Probenecid", "setting": "[2]", "result": 0.15},
      {"measurement": "D-value, Verapamil", "setting": "[2]", "result": 0.04}
    ]}
  ]
}
